Among the data in patent publication EP2712863B1, “Novel inhibitors of bacterial biofilms and related methods” (Sequoia Sciences, Inc., priority 2012, dated 2014) are IC85 values, retold here.

Structures are written as SMILES. In brackets after ≈: the same amount, converted by molar mass. Read-outs that look alike come from different tables or passages of the source. Where only a bound is given, the exact number is not on record here.

Test [1] deals with P. aeruginosa. As to the kind of experiment: Biofilm growth assay (spreading biofilm on semi-solid agar). The settings on record: Pseudomonas aeruginosa. In kind it is cell-based.
Test [2] deals with E. coli. Described as above. In kind it is cell-based. The settings on record: Escherichia coli. A digest of the protocol:
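Spreading (swarming) biofilm on semi-solid agar: E. coli on LB with 0.6% agar and 0.5% glucose; P. aeruginosa on M8 agar with 0.2% glucose, 100 µM CaCl2, 1 mM MgSO4, 0.5% Casamino acids. Compound in medium; 5 µL overnight culture spotted centrally, 37°C overnight. Value: concentration (µg/ml) giving ≥85% reduction in spread area versus negative control.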

Where [3] appears, read: Table 3, concentration that reduces the area of the spreading biofilm by >= 85%, read-out: P. aeruginosa.
Where [4] appears, read: Table 3, concentration that reduces the area of the spreading biofilm by >= 85%, read-out: E. coli.
Setting [5] is: Table 4, concentration that reduces the area of the spreading biofilm by >= 85%, read-out: P. aeruginosa.
Setting [6] is: Table 4, concentration that reduces the area of the spreading biofilm by >= 85%, read-out: E. coli.
Where [7] appears, read: Table 1, concentration that reduces the area of the spreading biofilm vs negative controls by >= 85%, > means not effective at this concentration, read-out: P. aeruginosa.
The mark [8] stands for this setting: Table 1, concentration that reduces the area of the spreading biofilm vs negative controls by >= 85%, > means not effective at this concentration, read-out: E. coli.

For the compound `CC1(C)CC[C@]2(C(=O)O)CC[C@]3(C)C(=C(c4coc(CN5CCCC5)c4)CC4[C@@]5(C)Cc6c(n[nH]c6N)C(C)(C)C5CC[C@]43C)C2C1` (stereo partly drawn) [Compound 38, (4aS,6aS,6bR,13aR)-12-Amino-2,2,6a,6b,9,9,13a-heptamethyl-15-(5-(pyrrolidin-1-ylmethyl)furan-3-yl)-2,3,4,4a,5,6,6a,6b,7,8,8a,9,11,13,13a,13b,14,15b-octadecahydro-1H-chryseno[1,2-f]indazole-4a-carboxylic acid], the IC85 is 1 µg/mL (≈ 1.56 µM) in test [1] (setting [3]) and 2 µg/mL (≈ 3.11 µM) in test [2] (setting [4]).

Consider `CC1(C)CC[C@]2(C(=O)O)CC[C@]3(C)C(=C(c4ccc(N)c(F)c4)CC4[C@@]5(C)Cc6c(n[nH]c6N)C(C)(C)C5CC[C@]43C)C2C1` (stereo partly drawn) [Compound 31, (4aS,6aS,6bR,13aR)-12-Amino-15-(4-amino-3-fluorophenyl)-2,2,6a,6b,9,9,13a-heptamethyl-2,3,4,4a,5,6,6a,6b,7,8,8a,9,11,13,13a,13b,14,15b-octadecahydro-1H-chryseno[1,2-f]indazole-4a-carboxylic acid], for which the figures for the IC85 in test [1] (setting [3]) and in test [2] (setting [4]) were 0.5 µg/mL (≈ 0.829 µM) and 1 µg/mL (≈ 1.66 µM), respectively.

On to `CC1(C)CC[C@]2(c3n[nH]c(O)c3CCO)CC[C@]3(C)C(=CCC4[C@@]5(C)Cc6c(n[nH]c6N)C(C)(C)C5CC[C@]43C)C2C1` (stereo partly drawn) [Compound 81, 3-((4aS,6aS,6bR,13aR)-12-Amino-2,2,6a,6b,9,9,13a-heptamethyl-2,3,4,4a,5,6,6a,6b,7,8,8a,9,11,13,13a,13b,14,15b-octadecahydro-1H-chryseno[1,2-f]indazol-4a-yl)-4-(2-hydroxyethyl)-1H-pyrazol-5-ol], for which the IC85 is 0.5 µg/mL (≈ 0.868 µM) in test [1] (setting [5]) and 1 µg/mL (≈ 1.74 µM) in test [2] (setting [6]).

As to `CC1(C)CC[C@]2(C(=O)O)CC[C@]3(C)C(=C(Cl)CC4[C@@]5(C)Cc6c(n[nH]c6N)C(C)(C)C5CC[C@]43C)C2C1` (stereo partly drawn) [Compound 24, (4aS,6aS,6bR,13aR)-12-Amino-15-chloro-2,2,6a,6b,9,9,13a-heptamethyl-2,3,4,4a,5,6,6a,6b,7,8,8a,9,11,13,13a,13b,14,15b-octadecahydro-1H-chryseno[1,2-f]indazole-4a-carboxylic acid], the IC85 came out at 0.5 µg/mL (≈ 0.947 µM) in test [1] (setting [3]) and 1 µg/mL (≈ 1.89 µM) in test [2] (setting [4]).

On to `CC1(C)CC[C@]2(c3nnc(O)s3)CC[C@]3(C)C(=CCC4[C@@]5(C)Cc6c(n[nH]c6N)C(C)(C)C5CC[C@]43C)C2C1` (stereo partly drawn) [Compound 78, 5-((4aS,6aS,6bR,13aR)-12-Amino-2,2,6a,6b,9,9,13a-heptamethyl-2,3,4,4a,5,6,6a,6b,7,8,8a,9,11,13,13a,13b,14,15b-octadecahydro-1H-chryseno[1,2-f]indazol-4a-yl)-1,3,4-thiadiazol-2-ol], for which the IC85 in test [1] (setting [5]) was > 1 µg/mL; in test [2] (setting [6]) it was 1 µg/mL (≈ 1.82 µM).

With `C[C@H]1[C@H](C)CC[C@]2(C(=O)O)CC[C@]3(C)C(=CC[C@@H]4[C@@]5(C)CC[C@H](O)C(C)(C)[C@@H]5CC[C@]43C)[C@H]12` [Ursolic acid, reference compound], the IC85 in test [1] (setting [7]) and in test [2] (setting [8]) was 8 µg/mL (≈ 17.5 µM) each time.

With `CC1=C2[C@@H]3CC(C)(C)CC[C@]3(C(=O)O)CC[C@@]2(C)[C@]2(C)CC[C@H]3C(C)(C)c4n[nH]c(N)c4C[C@]3(C)C2C1` (stereo partly drawn) [Compound 4, (4aS,6aS,6bR,8aR,13aR,15bS)-12-Amino-2,2,6a,6b,9,9,13a,15-octamethyl-2,3,4,4a,5,6,6a,6b,7,8,8a,9,11,13,13a,13b,14,15b-octadecahydro-1H-chryseno[1,2-f]indazole-4a-carboxylic acid], the IC85 in test [1] (Table 2, concentration that reduces the area of the spreading biofilm by >= 85%, read-out: P. aeruginosa) was determined as 0.25 µg/mL (≈ 0.492 µM); in test [2] (Table 2, concentration that reduces the area of the spreading biofilm by >= 85%, read-out: E. coli), 1 µg/mL (≈ 1.97 µM).

Turning to `CC1(C)CC[C@]2(c3n[nH]c(O)c3N3CCNCC3)CC[C@]3(C)C(=CCC4[C@@]5(C)Cc6c(n[nH]c6N)C(C)(C)C5CC[C@]43C)C2C1` (stereo partly drawn) [Compound 90, 3-((4aS,6aS,6bR,13aR)-12-Amino-2,2,6a,6b,9,9,13a-heptamethyl-2,3,4,4a,5,6,6a,6b,7,8,8a,9,11,13,13a,13b,14,15b-octadecahydro-1H-chryseno[1,2-f]indazol-4a-yl)-4-(piperazin-1-yl)-1H-pyrazol-5-ol], the IC85 was determined as 0.5 µg/mL (≈ 0.812 µM) in test [1] (read-out: P. aeruginosa (µg/ml)) and 1 µg/mL (≈ 1.62 µM) in test [2] (read-out: E. coli (µg/ml)).

For the compound `COC(=O)[C@]12CCC(C)(C)CC1C1=CCC3[C@@]4(C)CC[C@H](O)C(C)(C)C4CC[C@@]3(C)[C@]1(C)CC2` (stereo partly shown) [Oleanolic acid methyl ester, reference compound], the IC85 in test [1] (setting [7]) and in test [2] (setting [8]) was > 16 µg/mL each time.

With `COc1ccc(C2=C3[C@@H]4CC(C)(C)CC[C@]4(C(=O)O)CC[C@@]3(C)[C@]3(C)CC[C@H]4C(C)(C)c5n[nH]c(N)c5C[C@]4(C)C3C2)cn1` (stereo partly drawn) [Compound 42, (4aS,6aS,6bR,8aR,13aR,15bS)-12-Amino-15-(6-methoxypyridin-3-yl)-2,2,6a,6b,9,9,13a-heptamethyl-2,3,4,4a,5,6,6a,6b,7,8,8a,9,11,13,13a,13b,14,15b-octadecahydro-1H-chryseno[1,2-f]indazole-4a-carboxylic acid], the IC85 in test [1] (setting [3]) was determined as 0.25 µg/mL (≈ 0.416 µM); in test [2] (setting [4]), 1 µg/mL (≈ 1.66 µM).

In the case of `Cc1c([C@]23CCC(C)(C)CC2C2=CCC4[C@@]5(C)Cc6c(n[nH]c6N)C(C)(C)C5CC[C@@]4(C)[C@]2(C)CC3)n[nH]c1O` (stereo partly drawn) [Compound 82, 3-((4aS,6aS,6bR,13aR)-12-Amino-2,2,6a,6b,9,9,13a-heptamethyl-2,3,4,4a,5,6,6a,6b,7,8,8a,9,11,13,13a,13b,14,15b-octadecahydro-1H-chryseno[1,2-f]indazol-4a-yl)-4-methyl-1H-pyrazol-5-ol], the IC85 in test [1] (setting [5]) turned out to be 0.5 µg/mL (≈ 0.916 µM); in test [2] (setting [6]) it was 1 µg/mL (≈ 1.83 µM).

`Cn1nc([C@]23CCC(C)(C)C[C@H]2C2=CCC4[C@@]5(C)Cc6c(n[nH]c6N)C(C)(C)[C@@H]5CC[C@@]4(C)[C@]2(C)CC3)cc1N` (stereo partly drawn) [Compound 72, (4aS,6aS,6bR,8aR,13aR,15bS)-4a-(5-Amino-1-methyl-1H-pyrazol-3-yl)-2,2,6a,6b,9,9,13a-heptamethyl-2,3,4,4a,5,6,6a,6b,7,8,8a,9,11,13,13a,13b,14,15b-octadecahydro-1H-chryseno[1,2-f]indazol-12-amine]: the IC85 in test [1] (setting [5]) is 1 µg/mL (≈ 1.84 µM); in test [2] (setting [6]), > 2 µg/mL.

As to `Cn1cc(C2=C3[C@@H]4CC(C)(C)CC[C@]4(C(=O)O)CC[C@@]3(C)[C@]3(C)CC[C@H]4C(C)(C)c5n[nH]c(N)c5C[C@]4(C)C3C2)cn1` (stereo partly drawn) [Compound 28, (4aS,6aS,6bR,8aR,13aR,15bS)-12-Amino-2,2,6a,6b,9,9,13a-heptamethyl-15-(1-methyl-1H-pyrazol-4-yl)-2,3,4,4a,5,6,6a,6b,7,8,8a,9,11,13,13a,13b,14,15b-octadecahydro-1H-chryseno[1,2-f]indazole-4a-carboxylic acid], the IC85 is 1 µg/mL (≈ 1.74 µM) in test [1] (setting [3]) and 2 µg/mL (≈ 3.49 µM) in test [2] (setting [4]).

With `CC1(C)CC[C@]2(C(=O)O)CC[C@]3(C)C(=C(c4ccc(N5CCC(N)CC5)nc4)CC4[C@@]5(C)Cc6c(n[nH]c6N)C(C)(C)C5CC[C@]43C)C2C1` (stereo partly drawn) [Compound 57, (4aS,6aS,6bR,13aR)-12-Amino-15-(6-(4-aminopiperidin-1-yl)pyridin-3-yl)-2,2,6a,6b,9,9,13a-heptamethyl-2,3,4,4a,5,6,6a,6b,7,8,8a,9,11,13,13a,13b,14,15b-octadecahydro-1H-chryseno[1,2-f]indazole-4a-carboxylic acid], the IC85 is > 2 µg/mL in test [1] (setting [3]) and 1 µg/mL (≈ 1.49 µM) in test [2] (setting [4]).
